Data as given in patent publication US8921362B2, “6,7-dialkoxy quinazoline derivatives and methods of treating drug resistant and other tumors” (Natco Pharma Limited, priority 2008, dated 2014).

Tests used:
Experiment in all cases: KinomeScan
Type in all cases: binding
Details in all cases: read-out: % Ctrl @ 10000 nM
ABL1(Q252H) = target: T1, ABL1(Q252H) (Homo sapiens, UniProt P00519, Q252H)
T1 construct: host or cells: E. coli (BL21-derived), T7 phage lysate
Procedure, shortened: (§1)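 An active-site competition format was used, with T7 phage displaying the kinase and affinity beads carrying immobilized ligand. Blocking buffer contained SeaBlock, 1% BSA, 0.05% Tween 20 and 1 mM DTT.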

ABL2 = target: T2, ABL2 (Homo sapiens, UniProt P42684)
T2 construct: host or cells: E. coli (BL21-derived), T7 phage lysate
Procedure, shortened: as §1

ARK5 = target: T3, ARK5 (Homo sapiens, UniProt O60285)
T3 construct: host or cells: E. coli host derived from BL21
Procedure, shortened: as §1

AXL = target: T4, AXL (Homo sapiens, UniProt P30530)
T4 construct: host or cells: E. coli host derived from BL21
Procedure, shortened: as §1

BLK = target: T5, BLK (Homo sapiens, UniProt P51451)
T5 construct: host or cells: E. coli host derived from BL21
Procedure, shortened: as §1

BMPR2 = target: T6, BMPR2 (Homo sapiens, UniProt Q13873)
T6 construct: host or cells: E. coli host derived from BL21
Procedure, shortened: as §1

BRK = target: T7, BRK (Homo sapiens, UniProt Q13882)
T7 construct: host or cells: E. coli host derived from BL21
Procedure, shortened: as §1

BRSK1 = target: T8, BRSK1 (Homo sapiens, UniProt Q8TDC3)
T8 construct: host or cells: E. coli host derived from BL21
Procedure, shortened: as §1

CAMK2G = target: T9, CAMK2G (Homo sapiens, UniProt Q13555)
T9 construct: host or cells: E. coli host derived from BL21
Procedure, shortened: as §1

CIT = target: T10, CIT (Homo sapiens, UniProt O14578)
T10 construct: host or cells: T7 phage in E. coli host derived from BL21
Procedure, shortened: as §1

CLK2 = target: T11, CLK2 (Homo sapiens, UniProt P49760)
T11 construct: host or cells: T7 phage in E. coli host derived from BL21
Procedure, shortened: as §1

DRAK2 = target: T12, DRAK2 (Homo sapiens, UniProt O94768)
T12 construct: purchased Ambit Biosciences Corp (KinomeScan); host or cells: T7 phage in E. coli host derived from BL21
Procedure, shortened: as §1

EGFR = target: T13, EGFR (Homo sapiens, UniProt P00533)
T13 construct: purchased Ambit Biosciences Corp (KinomeScan); host or cells: T7 phage in E. coli host derived from BL21
Procedure, shortened: as §1

EGFR(E746-A750del) = target: T14, EGFR(E746-A750del) (Homo sapiens, UniProt P00533, DEL746-750)
T14 construct: purchased Ambit Biosciences Corp (KinomeScan); host or cells: T7 phage in E. coli host derived from BL21
Procedure, shortened: as §1

EGFR(G719S) = target: T15, EGFR(G719S) (Homo sapiens, UniProt P00533, G719S)
T15 construct: purchased Ambit Biosciences Corp (KinomeScan); host or cells: T7 phage in E. coli host derived from BL21
Procedure, shortened: as §1

FGFR1 = target: T16, FGFR1 (Homo sapiens, UniProt P11362)
T16 construct: host or cells: T7 phage in E. coli host derived from BL21
Procedure, shortened: as §1

FLT3(D835H) = target: T17, FLT3(D835H) (Homo sapiens, UniProt P36888, D835H)
T17 construct: host or cells: T7 phage in E. coli host derived from BL21
Procedure, shortened: as §1

[1] = target: T18, JAK1(JH1domain-catalytic) (Homo sapiens, UniProt P23458)
T18 construct: JAK1(JH1domain-catalytic); host or cells: T7 phage grown in E. coli host derived from BL21
Procedure, shortened: as §1

KIT(V559D) = target: T19, KIT(V559D) (Homo sapiens, UniProt P10721, V559D)
T19 construct: host or cells: T7 phage grown in E. coli host derived from BL21
Procedure, shortened: as §1

LIMK1 = target: T20, LIMK1 (Homo sapiens, UniProt P53667)
T20 construct: host or cells: T7 phage grown in E. coli host derived from BL21
Procedure, shortened: as §1

MAP3K4 = target: T21, MAP3K4 (Homo sapiens, UniProt Q9Y6R4)
T21 construct: host or cells: E. coli host derived from the BL21 strain, infected with T7 phage
Procedure, shortened: as §1

MLK2 = target: T22, MLK2 (Homo sapiens, UniProt Q02779)
T22 construct: host or cells: T7 phage grown in E. coli host derived from BL21
Procedure, shortened: as §1

MYO3B = target: T23, MYO3B (Homo sapiens, UniProt Q8WXR4)
T23 construct: host or cells: T7 phage grown in E. coli host derived from BL21
Procedure, shortened: as §1

PAK4 = target: T24, PAK4 (Homo sapiens, UniProt O96013)
T24 construct: host or cells: E. coli host derived from BL21, infected with T7 phage
Procedure, shortened: as §1

PDGFRA = target: T25, PDGFRA (Homo sapiens, UniProt P16234)
T25 construct: host or cells: E. coli host derived from BL21, infected with T7 phage
Procedure, shortened: as §1

PFTK1 = target: T26, PFTK1 (Homo sapiens, UniProt O94921)
T26 construct: host or cells: E. coli host derived from BL21, infected with T7 phage
Procedure, shortened: as §1

PHKG2 = target: T27, PHKG2 (Homo sapiens, UniProt P15735)
T27 construct: host or cells: E. coli host derived from BL21, infected with T7 phage
Procedure, shortened: as §1

PIK3CA = target: T28, PIK3CA (Homo sapiens, UniProt P42336)
T28 construct: host or cells: E. coli host derived from BL21, infected with T7 phage
Procedure, shortened: as §1

PIM1 = target: T29, PIM1 (Homo sapiens, UniProt P11309)
T29 construct: host or cells: T7 phage in E. coli host derived from BL21
Procedure, shortened: as §1

PKN1 = target: T30, PKN1 (Homo sapiens, UniProt Q16512)
T30 construct: host or cells: T7 phage in E. coli host derived from BL21
Procedure, shortened: as §1

PRKG1 = target: T31, PRKG1 (Homo sapiens, UniProt Q13976)
T31 construct: host or cells: T7 phage in E. coli host derived from BL21
Procedure, shortened: as §1

RIOK1 = target: T32, RIOK1 (Homo sapiens, UniProt Q9BRS2)
T32 construct: host or cells: E. coli host derived from BL21, T7 phage display
Procedure, shortened: as §1

SRPK2 = target: T33, SRPK2 (Homo sapiens, UniProt P78362)
T33 construct: host or cells: T7 phage grown in E. coli (BL21-derived)
Procedure, shortened: as §1

T28 sequence (P42336 whole entry): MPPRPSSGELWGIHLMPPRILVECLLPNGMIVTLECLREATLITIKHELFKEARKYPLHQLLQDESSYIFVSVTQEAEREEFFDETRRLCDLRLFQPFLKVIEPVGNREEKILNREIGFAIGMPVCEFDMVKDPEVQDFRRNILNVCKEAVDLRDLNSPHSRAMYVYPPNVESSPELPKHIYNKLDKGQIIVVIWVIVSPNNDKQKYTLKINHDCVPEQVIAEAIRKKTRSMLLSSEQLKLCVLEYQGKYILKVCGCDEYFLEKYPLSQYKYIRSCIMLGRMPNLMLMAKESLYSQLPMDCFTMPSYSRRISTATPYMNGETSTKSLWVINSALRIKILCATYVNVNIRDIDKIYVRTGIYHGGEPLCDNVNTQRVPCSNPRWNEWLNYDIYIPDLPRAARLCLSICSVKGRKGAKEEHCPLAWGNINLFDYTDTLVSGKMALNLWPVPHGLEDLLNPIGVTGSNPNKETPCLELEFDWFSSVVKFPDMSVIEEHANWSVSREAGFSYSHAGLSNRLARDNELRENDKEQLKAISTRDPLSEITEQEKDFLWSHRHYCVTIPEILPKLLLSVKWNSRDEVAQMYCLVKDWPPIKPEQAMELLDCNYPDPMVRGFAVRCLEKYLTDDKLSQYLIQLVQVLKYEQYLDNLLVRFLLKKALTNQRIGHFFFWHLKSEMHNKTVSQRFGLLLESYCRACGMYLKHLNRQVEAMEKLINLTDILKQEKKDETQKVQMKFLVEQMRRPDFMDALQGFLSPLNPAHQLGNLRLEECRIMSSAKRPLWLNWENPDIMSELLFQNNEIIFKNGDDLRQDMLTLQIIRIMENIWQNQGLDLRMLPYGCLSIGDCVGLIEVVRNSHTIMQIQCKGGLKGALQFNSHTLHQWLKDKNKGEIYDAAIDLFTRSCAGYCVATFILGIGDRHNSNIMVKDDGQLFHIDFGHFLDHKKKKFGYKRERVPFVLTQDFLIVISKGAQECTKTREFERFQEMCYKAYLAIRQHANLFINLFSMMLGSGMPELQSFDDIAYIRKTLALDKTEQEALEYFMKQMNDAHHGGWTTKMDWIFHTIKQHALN
T22 sequence (Q02779 whole entry): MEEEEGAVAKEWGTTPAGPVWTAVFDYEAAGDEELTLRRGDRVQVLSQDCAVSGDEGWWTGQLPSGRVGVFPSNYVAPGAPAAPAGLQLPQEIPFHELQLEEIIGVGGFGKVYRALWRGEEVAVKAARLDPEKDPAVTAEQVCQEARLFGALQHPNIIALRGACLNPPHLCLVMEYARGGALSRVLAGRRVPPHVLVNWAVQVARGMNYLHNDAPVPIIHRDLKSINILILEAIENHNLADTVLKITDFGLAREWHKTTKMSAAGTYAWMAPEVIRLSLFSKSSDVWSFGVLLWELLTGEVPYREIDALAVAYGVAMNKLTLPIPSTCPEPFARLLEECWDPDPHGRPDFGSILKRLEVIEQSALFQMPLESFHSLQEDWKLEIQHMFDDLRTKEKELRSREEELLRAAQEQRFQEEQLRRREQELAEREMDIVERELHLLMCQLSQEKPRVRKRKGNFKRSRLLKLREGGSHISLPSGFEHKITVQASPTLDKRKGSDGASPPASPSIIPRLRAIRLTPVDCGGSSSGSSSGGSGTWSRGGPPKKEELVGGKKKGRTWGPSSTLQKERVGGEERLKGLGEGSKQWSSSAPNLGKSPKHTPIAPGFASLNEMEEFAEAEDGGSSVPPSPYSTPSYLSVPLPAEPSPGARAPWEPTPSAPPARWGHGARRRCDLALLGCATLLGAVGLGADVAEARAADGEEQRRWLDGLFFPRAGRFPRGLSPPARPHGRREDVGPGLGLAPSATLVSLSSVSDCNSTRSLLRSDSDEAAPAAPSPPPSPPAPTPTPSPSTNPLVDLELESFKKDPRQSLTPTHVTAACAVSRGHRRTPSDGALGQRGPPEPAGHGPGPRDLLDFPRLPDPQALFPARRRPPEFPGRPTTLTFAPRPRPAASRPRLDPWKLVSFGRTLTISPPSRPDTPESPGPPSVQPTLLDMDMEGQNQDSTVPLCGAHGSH
T20 sequence (P53667 whole entry): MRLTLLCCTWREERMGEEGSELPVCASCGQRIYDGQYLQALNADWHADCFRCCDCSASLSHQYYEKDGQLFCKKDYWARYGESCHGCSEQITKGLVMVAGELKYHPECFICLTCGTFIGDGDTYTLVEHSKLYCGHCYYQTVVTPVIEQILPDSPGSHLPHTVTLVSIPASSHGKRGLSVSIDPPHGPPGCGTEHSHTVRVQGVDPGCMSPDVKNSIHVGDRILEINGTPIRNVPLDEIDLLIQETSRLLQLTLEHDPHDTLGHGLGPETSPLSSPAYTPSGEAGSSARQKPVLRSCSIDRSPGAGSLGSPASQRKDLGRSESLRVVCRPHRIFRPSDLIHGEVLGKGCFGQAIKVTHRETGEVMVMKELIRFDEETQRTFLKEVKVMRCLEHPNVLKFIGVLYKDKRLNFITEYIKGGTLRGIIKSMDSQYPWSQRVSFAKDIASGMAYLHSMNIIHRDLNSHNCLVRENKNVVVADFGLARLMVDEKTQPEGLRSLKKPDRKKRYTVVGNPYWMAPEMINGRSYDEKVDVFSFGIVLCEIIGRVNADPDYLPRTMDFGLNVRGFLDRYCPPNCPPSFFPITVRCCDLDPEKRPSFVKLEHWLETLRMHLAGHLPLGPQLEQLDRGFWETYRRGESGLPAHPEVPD
T4 sequence (P30530 26-894): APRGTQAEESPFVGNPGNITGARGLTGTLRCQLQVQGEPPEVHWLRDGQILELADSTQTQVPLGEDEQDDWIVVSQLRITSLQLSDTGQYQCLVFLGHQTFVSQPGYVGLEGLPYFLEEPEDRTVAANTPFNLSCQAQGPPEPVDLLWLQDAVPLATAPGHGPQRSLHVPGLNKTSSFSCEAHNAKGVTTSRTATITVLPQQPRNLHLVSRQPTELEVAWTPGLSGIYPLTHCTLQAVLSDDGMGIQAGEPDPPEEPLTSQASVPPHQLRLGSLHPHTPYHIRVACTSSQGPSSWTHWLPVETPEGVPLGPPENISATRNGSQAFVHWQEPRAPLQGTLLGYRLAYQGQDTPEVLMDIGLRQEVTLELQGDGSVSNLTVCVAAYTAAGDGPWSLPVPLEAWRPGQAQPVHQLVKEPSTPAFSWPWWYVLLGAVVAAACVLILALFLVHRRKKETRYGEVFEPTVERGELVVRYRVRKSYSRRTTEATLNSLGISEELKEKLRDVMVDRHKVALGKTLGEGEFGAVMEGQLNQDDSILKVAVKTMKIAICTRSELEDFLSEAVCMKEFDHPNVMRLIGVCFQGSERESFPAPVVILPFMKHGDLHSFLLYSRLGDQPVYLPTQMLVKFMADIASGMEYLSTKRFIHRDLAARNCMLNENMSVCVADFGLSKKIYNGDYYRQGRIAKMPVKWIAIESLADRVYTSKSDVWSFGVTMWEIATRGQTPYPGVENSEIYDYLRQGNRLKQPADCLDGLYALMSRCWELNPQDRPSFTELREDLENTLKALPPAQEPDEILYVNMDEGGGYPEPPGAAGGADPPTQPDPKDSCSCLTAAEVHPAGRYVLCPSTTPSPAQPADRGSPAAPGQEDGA
T12 sequence (O94768 whole entry): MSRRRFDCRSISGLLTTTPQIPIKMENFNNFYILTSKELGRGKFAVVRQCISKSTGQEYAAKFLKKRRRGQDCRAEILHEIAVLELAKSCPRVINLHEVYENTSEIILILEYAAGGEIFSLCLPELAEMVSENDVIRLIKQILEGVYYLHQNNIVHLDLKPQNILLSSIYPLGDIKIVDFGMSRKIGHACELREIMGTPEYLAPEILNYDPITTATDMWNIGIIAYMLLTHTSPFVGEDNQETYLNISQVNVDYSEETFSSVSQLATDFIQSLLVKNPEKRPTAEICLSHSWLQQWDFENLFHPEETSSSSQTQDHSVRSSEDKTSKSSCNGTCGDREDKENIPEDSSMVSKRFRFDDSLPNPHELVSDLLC
T16 sequence (P11362 22-822): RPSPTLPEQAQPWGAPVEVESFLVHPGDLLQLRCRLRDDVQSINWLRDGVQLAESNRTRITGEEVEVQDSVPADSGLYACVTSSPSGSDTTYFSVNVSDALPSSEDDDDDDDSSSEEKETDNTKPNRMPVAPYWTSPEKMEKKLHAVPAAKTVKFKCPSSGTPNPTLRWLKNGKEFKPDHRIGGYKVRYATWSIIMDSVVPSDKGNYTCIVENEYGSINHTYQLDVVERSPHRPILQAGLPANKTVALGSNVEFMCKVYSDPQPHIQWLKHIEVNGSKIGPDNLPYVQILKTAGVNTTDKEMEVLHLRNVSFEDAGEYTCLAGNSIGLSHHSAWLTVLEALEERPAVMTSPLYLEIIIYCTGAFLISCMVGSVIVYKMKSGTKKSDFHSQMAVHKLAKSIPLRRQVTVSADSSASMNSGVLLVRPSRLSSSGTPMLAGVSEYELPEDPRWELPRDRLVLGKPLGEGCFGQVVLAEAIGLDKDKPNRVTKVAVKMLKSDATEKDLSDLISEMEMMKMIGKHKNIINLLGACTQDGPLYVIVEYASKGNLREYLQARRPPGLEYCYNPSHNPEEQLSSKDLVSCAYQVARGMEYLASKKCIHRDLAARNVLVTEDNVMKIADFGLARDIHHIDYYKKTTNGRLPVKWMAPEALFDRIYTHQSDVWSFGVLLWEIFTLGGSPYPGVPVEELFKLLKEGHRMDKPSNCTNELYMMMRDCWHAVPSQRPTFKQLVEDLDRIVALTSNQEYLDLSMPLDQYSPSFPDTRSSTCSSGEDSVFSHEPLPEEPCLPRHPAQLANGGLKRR
T18 sequence (P23458 875-1153 limits assumed): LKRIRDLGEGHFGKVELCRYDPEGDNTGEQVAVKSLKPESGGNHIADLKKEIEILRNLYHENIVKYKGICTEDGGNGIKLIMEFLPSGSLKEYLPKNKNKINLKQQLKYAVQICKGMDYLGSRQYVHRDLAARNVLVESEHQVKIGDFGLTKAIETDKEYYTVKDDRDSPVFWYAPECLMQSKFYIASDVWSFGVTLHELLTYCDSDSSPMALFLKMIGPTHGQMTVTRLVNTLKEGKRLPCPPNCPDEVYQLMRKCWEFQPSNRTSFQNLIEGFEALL

Work on `C#Cc1cccc(Nc2ncnc3cc(OC)c(OCCCN4CCOCC4)cc23)c1` [NRC-2694, N-(3-ethynylphenyl)-7-methoxy-6-[3-(4-morpholinyl)propoxy]-4-quinazolinamine] yielded a remaining binding at 10 µM (ABL1(Q252H)) of 15%, a remaining binding at 10 µM (ABL2) of 43% and a remaining binding at 10 µM (ARK5) of 29%. For the same molecule, the remaining binding at 10 µM (AXL) was 25%, the remaining binding at 10 µM (BLK) was 4.4% and the remaining binding at 10 µM (BMPR2) was 100%. The remaining binding at 10 µM (BRK) was 46%, the remaining binding at 10 µM (BRSK1) was 53% and the remaining binding at 10 µM (CAMK2G) was 58%. For the same molecule, the remaining binding at 10 µM (CIT) was 5%, the remaining binding at 10 µM (CLK2) was 64% and the remaining binding at 10 µM (DRAK2) was 58%. The remaining binding at 10 µM (EGFR) was 0%, the remaining binding at 10 µM (EGFR(E746-A750del)) was 0% and the remaining binding at 10 µM (EGFR(G719S)) was 0%. For the same molecule, the remaining binding at 10 µM (FGFR1) was 64%, the remaining binding at 10 µM (FLT3(D835H)) was 8.1% and the remaining binding at 10 µM [1] was 15%. The remaining binding at 10 µM (KIT(V559D)) was 17%, the remaining binding at 10 µM (LIMK1) was 62% and the remaining binding at 10 µM (MAP3K4) was 53%. For the same molecule, the remaining binding at 10 µM (MLK2) was 83%, the remaining binding at 10 µM (MYO3B) was 100% and the remaining binding at 10 µM (PAK4) was 80%. It also gave a remaining binding at 10 µM (PDGFRA) of 50%, a remaining binding at 10 µM (PFTK1) of 71% and a remaining binding at 10 µM (PHKG2) of 59%. The remaining binding at 10 µM (PIK3CA) was 100%, the remaining binding at 10 µM (PIM1) was 39% and the remaining binding at 10 µM (PKN1) was 50%. The remaining binding at 10 µM (PRKG1) was 75%, the remaining binding at 10 µM (RIOK1) was 36% and the remaining binding at 10 µM (SRPK2) was 73%.
